The results in this text go back to ChEMBL document CHEMBL5634205, “Pyrazolopyridine-based kinase inhibitors for anti-cancer targeted therapy” (RSC Med Chem, 2024).

The assay deals with T1, Tyrosine-protein kinase receptor TYRO3 (Homo sapiens, UniProt Q06418).
T1 sequence (Q06418 whole entry): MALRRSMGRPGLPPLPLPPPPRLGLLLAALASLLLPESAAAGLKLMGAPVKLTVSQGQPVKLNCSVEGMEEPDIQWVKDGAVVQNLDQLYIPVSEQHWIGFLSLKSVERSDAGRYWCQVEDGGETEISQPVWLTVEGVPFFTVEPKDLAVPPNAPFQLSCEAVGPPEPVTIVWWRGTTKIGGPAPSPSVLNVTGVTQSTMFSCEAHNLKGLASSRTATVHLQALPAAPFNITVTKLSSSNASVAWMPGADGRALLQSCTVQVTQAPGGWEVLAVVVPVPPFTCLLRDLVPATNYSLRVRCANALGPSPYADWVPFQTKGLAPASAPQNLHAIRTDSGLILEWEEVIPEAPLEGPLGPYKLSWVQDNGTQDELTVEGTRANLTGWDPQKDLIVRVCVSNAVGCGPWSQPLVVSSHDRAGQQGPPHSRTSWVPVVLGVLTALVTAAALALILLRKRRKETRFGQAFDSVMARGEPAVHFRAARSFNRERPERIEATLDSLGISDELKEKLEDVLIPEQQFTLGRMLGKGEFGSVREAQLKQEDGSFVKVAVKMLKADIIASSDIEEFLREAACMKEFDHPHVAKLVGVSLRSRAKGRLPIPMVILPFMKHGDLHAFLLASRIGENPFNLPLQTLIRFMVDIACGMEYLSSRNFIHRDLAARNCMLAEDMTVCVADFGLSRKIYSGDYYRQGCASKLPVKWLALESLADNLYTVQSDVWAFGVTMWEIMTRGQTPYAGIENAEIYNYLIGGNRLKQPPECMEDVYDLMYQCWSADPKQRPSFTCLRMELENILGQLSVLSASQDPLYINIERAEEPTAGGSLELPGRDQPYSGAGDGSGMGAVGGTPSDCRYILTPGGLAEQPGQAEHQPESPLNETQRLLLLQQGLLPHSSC
The experiment in a line: Inhibition of SKY (unknown origin).

For the molecule `CN1C(=O)CCc2cc(NC(=O)c3n[nH]c4ccccc34)ccc21`, the IC50 – broadly, the concentration at which inhibition is half-maximal – stood at 3.2 nM. In the case of `O=C(O)c1cccc(C(=O)Nc2n[nH]c3ncc(-c4ccc(F)cc4)cc23)c1`, the IC50 worked out at 1.2 nM. This IC50 is about 2.7-fold lower than that of the molecule before.
